Data as given in US20250264484A1, “METHODS FOR IDENTIFYING AND TREATING DISEASES” (Genzyme Corporation, priority 2022, published 2025).

What was measured:
Lyso-GL1 levels = test: CBE dose titration in WT mice: lyso-GL1 accumulation; type: in vivo; settings: cortex, liver and plasma, 24 hours after CBE
Description: Lyso-GL1 was detected in cortex (FIG. 2A), liver (FIG. 2B), and plasma (FIG. 2C). N=4 per group (8 for untreated and 100 mg/kg plasma). Results for lyso-GL1 are μg/g wet tissue. […] Error bars show SEM.
A dose response to CBE was performed in wild-type (WT) mice (Charles River Laboratories or Jackson Labs). Concentrations between 0.3 mg/kg and 100 mg/kg of CBE were investigated. GCase activity remaining 24 hours after administration of CBE was measured using a 4-methylumbelliferone (4MU) hydrolysis assay. Briefly, cell lysates from different sample types were diluted into 0.1 M sodium acetate buffer, pH 4.5 containing 10 mM of synthetic substrate 4-methylumbelliferyl-β-D-glucopyranoside and incubated at 37° C. for 1 hour. The reaction was terminated by adding 0.5 volume of 1 M glycine buffer, pH 12.5. The fluorescence of the reaction was measured using a Spectramax fluorimeter (Ex365/Em445; Molecular Devices, Sunnyvale, CA, USA). A standard curve was generated using Cerezyme® (imiglucerase).

GCase [1] = target: T1, GCase (Homo sapiens, UniProt P04062); settings: read-out: IC50 against GCase; cited from earlier work
T1 sequence (P04062 40-536): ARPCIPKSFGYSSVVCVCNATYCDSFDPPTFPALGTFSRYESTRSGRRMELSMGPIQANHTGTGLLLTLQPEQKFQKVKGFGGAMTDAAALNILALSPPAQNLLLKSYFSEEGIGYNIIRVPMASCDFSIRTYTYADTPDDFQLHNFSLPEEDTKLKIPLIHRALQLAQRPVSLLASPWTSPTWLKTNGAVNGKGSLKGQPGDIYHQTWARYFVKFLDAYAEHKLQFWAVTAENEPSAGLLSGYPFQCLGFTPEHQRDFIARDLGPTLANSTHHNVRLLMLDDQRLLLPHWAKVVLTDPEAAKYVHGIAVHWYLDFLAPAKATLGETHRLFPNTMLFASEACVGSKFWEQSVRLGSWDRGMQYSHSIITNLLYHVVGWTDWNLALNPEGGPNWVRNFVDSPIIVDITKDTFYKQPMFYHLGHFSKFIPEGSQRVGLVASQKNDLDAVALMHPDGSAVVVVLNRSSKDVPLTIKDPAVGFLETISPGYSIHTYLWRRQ

[2] = tested on: SHSY-5Y neuroblastoma cells; test: Lipid response of SHSY-5Y neuroblastoma cells to CBE incubation; type: cell-based, human; settings: 100 μM CBE for 24 hours
Source text: In each case, the lyso-GL1 levels without treatment are very low (left-hand bar, in black). Error bars show SD, and data are presented in relative (arbitrary) units, “AU”, which are normalized for cell number.
First, the response of human SHSY-5Y neuroblastoma cells to CBE was studied. Cells were either used without further changes (wild-type) or were modified to reduce or increase Gba activity (knock-down and over-expressed, respectively). The modification was effected by stable transfection with a plasmid expressing an siRNA targeting GBA (KD) or a plasmid constitutively overexpressing GBA (OE). Human SHSY-5Y neuroblastoma cells (Sigma) were incubated with 100 μM CBE (Toronto Research Chemicals) for 24 hours. Enzyme activity and lipid levels were measured at −24 hours (before CBE incubation), and at 0, 24, and 48 hours after CBE removal. […] A marked increase in enzyme activity was observed between the knock-down and wild-type cells, and between the wild-type and over-expressed cells.

[3] = tested on: lyso-GL1 and GL-1 accumulation; test: CBE timecourse of lipid flux in wild-type mouse strains; type: in vivo; settings: C57BL/6, BALB/cJ and FVB mice after CBE challenge
Description: GSL levels were measured in cortex (FIG. 4A), liver (FIG. 4B), and plasma (FIG. 4C). […] Data are shown as mean±SD.
Three different wild-type mouse strains (C57BL/6J, BALB/cJ, and FVB-Charles River Laboratories or Jackson Labs) were evaluated for GSL accumulation and restoration after CBE challenge. […] The CBE challenge time course was performed in these three different strains, measuring lyso-GL1 and GL-1 accumulation at 24, 48, and 72 hours after administration.

β-glucuronidase = target: T2, β-glucuronidase (Homo sapiens, UniProt P08236); settings: range given jointly for three glycosidases; read-out: IC50 against β-glucuronidase; cited from earlier work
T2 sequence (P08236 23-651): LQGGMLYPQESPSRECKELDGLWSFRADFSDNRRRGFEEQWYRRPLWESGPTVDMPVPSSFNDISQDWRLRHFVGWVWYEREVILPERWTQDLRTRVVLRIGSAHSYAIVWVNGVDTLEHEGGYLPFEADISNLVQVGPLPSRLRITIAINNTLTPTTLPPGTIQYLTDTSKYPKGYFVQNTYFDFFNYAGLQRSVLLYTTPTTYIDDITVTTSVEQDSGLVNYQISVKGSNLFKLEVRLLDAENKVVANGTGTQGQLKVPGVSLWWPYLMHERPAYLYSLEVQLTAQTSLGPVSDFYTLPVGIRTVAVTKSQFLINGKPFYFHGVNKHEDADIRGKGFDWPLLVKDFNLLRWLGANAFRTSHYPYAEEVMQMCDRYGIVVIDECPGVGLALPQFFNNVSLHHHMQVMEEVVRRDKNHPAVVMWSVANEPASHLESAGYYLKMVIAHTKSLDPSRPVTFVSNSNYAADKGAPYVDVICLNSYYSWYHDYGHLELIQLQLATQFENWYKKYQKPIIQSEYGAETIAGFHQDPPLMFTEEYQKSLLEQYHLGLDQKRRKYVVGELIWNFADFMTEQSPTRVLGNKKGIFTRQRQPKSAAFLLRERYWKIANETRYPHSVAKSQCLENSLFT

[4] = tested on: GL1 and lyso-GL1 accumulation; test: CBE timecourse of lipid flux in Gba D409V/D409V, D409V/+ and +/+ mice; type: in vivo; settings: single intraperitoneal CBE injection
Source text: For each plot, the top line (with squares) is the homozygous D409V mice, the middle line (with triangles pointing upwards) is the heterozygous mice, and the bottom line (triangles pointing downwards) is the wild-type mice. N=10 per group. Data are shown as mean±SEM.
It was investigated whether substrate accumulation could allow for discrimination between mice harboring different copy numbers of mutations in GBA1. Three mouse models were investigated: Gba^D409V/D409V, Gba^D409V/+, and Gba^+/+, which are homozygous for a loss of function D409V mutation in GBA1, heterozygous for that mutation, or WT for GBA1, respectively. The GCase substrate, glucosylceramide (GL1) was investigated in addition to glucosylsphingosine (lyso-GL1). Mice were administered a single dose of CBE and sacrificed after 3, 6, 24, 48, or 72 hours. Substrate accumulation and dissipation was measured over time.

[5] = target: T3, non-lysosomal glucosylceramidase (Homo sapiens, UniProt Q9HCG7); settings: range given jointly for three glycosidases; read-out: IC50 against non-lysosomal glucosylceramidase; cited from earlier work
T3 sequence (Q9HCG7 1-927): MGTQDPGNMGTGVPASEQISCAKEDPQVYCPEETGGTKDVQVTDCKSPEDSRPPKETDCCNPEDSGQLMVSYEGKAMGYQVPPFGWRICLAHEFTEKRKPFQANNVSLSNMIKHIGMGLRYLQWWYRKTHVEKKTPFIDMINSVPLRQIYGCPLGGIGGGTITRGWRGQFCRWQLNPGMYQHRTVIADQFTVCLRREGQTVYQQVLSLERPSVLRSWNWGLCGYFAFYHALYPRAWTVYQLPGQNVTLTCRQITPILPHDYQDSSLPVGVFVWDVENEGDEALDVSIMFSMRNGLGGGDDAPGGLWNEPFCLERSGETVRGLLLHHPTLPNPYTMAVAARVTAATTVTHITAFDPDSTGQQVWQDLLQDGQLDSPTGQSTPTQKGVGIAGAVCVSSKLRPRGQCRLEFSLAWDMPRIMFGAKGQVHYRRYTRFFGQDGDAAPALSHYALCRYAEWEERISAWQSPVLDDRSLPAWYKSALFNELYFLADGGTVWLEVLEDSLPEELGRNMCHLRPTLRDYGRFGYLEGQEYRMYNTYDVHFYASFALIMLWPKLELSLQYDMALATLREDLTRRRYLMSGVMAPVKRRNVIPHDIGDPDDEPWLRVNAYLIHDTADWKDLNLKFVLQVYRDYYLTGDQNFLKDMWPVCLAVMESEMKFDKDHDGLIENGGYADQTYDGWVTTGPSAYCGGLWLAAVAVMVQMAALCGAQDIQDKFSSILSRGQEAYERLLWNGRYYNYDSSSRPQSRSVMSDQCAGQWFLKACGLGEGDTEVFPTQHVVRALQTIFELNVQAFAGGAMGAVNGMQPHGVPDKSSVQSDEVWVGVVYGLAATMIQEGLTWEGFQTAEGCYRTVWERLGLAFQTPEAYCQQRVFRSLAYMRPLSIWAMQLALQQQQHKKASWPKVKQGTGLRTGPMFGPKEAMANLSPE

α-glucosidases = settings: range given jointly for three glycosidases; read-out: IC50 against α-glucosidases; cited from earlier work
[6] = tested on: human peripheral blood mononuclear cells (PBMCs); test: CBE challenge in human PBMCs; type: cell-based
Description: PBMCs were obtained from blood samples (Stem Cell Technologies, catalog number 70025, lot number 2105417005, Donor ID CE0006419) using standard procedures. 25,000 cells were added to individual wells of a multi-well plate and allowed to acclimate for 24 hours before they were treated with 100 μM CBE for 24 hours. Culture medium was removed and replaced with fresh medium (without CBE), and lipids were extracted from the cells at time intervals of 0, 2, 4, 8, 16 and 24 hours. GL1 and lyso-GL1 levels were measured, as were levels of phosphatidylcholine (PC).

GCase [7] = target: T4, GCase (Mus musculus, UniProt P17439); test: CBE dose titration in WT mice: GCase activity (4MU hydrolysis assay); type: in vivo; settings: cortex and liver, 24 hours, 0.3-100 mg/kg CBE
T4 construct: GCase activity remaining 24 hours after administration of CBE was measured; from tissue; host or cells: cortex and liver of wild-type mice (Charles River Laboratories or Jackson Labs)
T4 sequence (P17439 20-515): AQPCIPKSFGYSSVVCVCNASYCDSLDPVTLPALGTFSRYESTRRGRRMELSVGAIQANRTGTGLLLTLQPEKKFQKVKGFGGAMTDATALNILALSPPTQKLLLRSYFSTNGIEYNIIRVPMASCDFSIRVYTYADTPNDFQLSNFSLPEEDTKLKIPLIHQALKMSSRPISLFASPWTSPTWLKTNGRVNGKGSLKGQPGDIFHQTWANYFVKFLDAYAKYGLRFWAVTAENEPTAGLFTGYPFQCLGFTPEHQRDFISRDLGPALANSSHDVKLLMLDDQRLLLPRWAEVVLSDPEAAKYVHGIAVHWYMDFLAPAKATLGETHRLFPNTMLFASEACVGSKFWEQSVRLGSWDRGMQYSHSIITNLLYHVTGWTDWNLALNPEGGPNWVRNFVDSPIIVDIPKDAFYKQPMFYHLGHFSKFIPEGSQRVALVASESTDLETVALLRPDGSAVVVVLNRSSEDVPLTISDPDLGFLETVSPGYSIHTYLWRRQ
Description: N=4 per group (8 for untreated and 100 mg/kg plasma). […] Error bars show SEM.

[8] = tested on: SHSY-5Y neuroblastoma cells; settings: wild-type cells

## O[C@H]1[C@H](O)[C@@H](O)[C@@H]2O[C@@H]2[C@@H]1O [CBE, conduritol-β epoxide]
Lyso-GL1 levels
  Lyso-GL1 levels: increased with increasing CBE dose beyond 30 mg/kg
GCase [1]
  IC50: ~0.3 µM
[2]; KD, WT and OE SHSY-5Y cells
  GL1 and lyso-GL1 accumulation upon CBE treatment: inversely proportional to the level of GBA1 expression
[2]; wild-type SHSY-5Y cells
  total GL1 levels after treatment: No significant difference
[3]
  time of peak glycosphingolipid levels: 24 h
β-glucuronidase
  IC50: 200 to 2000 µM
[4]
  time of peak substrate accumulation: 24 to 48 h
[5]
  IC50: 200 to 2000 µM
α-glucosidases
  IC50: 200 to 2000 µM
[6]; 100 μM CBE for 24 hours
  increase of GL1 levels after CBE treatment: about 6 fold
  phosphatidylcholine (PC) levels: largely unaffected
[6]; 100 μM CBE for 24 hours, baseline about 2 ng/ml
  GL1 levels after CBE treatment: about 12 ng/ml
[6]; 100 μM CBE for 24 hours, from nearly undetectable levels
  lyso-GL1 levels after CBE treatment: about 0.08 ng/ml
[6]; normalized to PC levels
  time for GL1 and lyso-GL1 levels to normalize after treatment: 16 h
GCase [7]
  GCase activity remaining after administration of CBE: dose-dependent reduction in enzyme activity

## C[C@H](CCC(=O)NCCS(=O)(=O)O)[C@H]1CC[C@H]2[C@@H]3[C@H](O)C[C@@H]4C[C@H](O)CC[C@]4(C)[C@H]3C[C@H](O)[C@]12C [sodium taurocholate]
[8]
  increase of response (dynamic range) on incubation with sodium taurocholate: ~10 factor
